Patent publication US7718578B2, “Method of synthesis and testing of combinatorial libraries using microcapsules” (Medical Research Council, priority 2003, dated 2010)

Legend:
[1] = Compartmentalisation of small molecules in water-in-fluorocarbon emulsions (epifluorescence microscopy); type: physicochemical; conditions: water-in-perfluorooctyl bromide emulsions mixed by vortexing, 24 hours after mixing
Protocol: Water-in-fluorocarbon emulsions containing 95% (v/v) perfluorooctyl bromide, 5% (v/v) phosphate buffered saline containing the molecule of interest in solution, and 2% (w/v) C8F17C11H22OP(O)[N(CH2CH2)2O]2 (F8H11DMP) as surfactant were formed essentially as (Sadtler et al., 1996) by extrusion (15 times) through 14 μm filters (Osmonics) or by homogenising for 5 min at 25,000 r.p.m. using an Ultra-Turrax T8 Homogenizer (IKA) with a 5 mm dispersing tool. Emulsions were made containing a series of small fluorescent molecules dissolved in the aqueous phase at concentrations from […] to 2 mM. These molecules, including calcein, texas red, fluorescein, coumarin 102, 7-hydroxycoumarin-3-carboxylic acid and 7-diethylamino-4-methyl coumarin (coumarin 1), had molecular weights from 203 to 625 Da and Log P values—calculated using SRC's LogKow/KowWin Program (Meylan and Howard, 1995)—ranging from −0.49 to 4.09. Emulsions containing different coloured fluorochromes were mixed by vortexing. Compartmentalisation was observed by epifluorescence microscopy of the mixed emulsions. No exchange between compartments was observed 24 hours after mixing (see FIG. 5).

[2] = target: T1, human recombinant PTP1B, residues 1-322 (Homo sapiens, UniProt P18031); assay: Screening for PTP1B inhibition using microcapsules in microfluidic systems (DiFMUP, epifluorescence microscope); type: biochemical; conditions: Example 5: 100 μM compound solution, PTP1B 50 mU/ml, microfluidic droplets in PFD carrier fluid
T1 construct: human recombinant PTP1B, residues 1-322; Biomol Research Laboratories, Inc; purchased Biomol Research Laboratories, Inc
T1 sequence (P18031 1-322): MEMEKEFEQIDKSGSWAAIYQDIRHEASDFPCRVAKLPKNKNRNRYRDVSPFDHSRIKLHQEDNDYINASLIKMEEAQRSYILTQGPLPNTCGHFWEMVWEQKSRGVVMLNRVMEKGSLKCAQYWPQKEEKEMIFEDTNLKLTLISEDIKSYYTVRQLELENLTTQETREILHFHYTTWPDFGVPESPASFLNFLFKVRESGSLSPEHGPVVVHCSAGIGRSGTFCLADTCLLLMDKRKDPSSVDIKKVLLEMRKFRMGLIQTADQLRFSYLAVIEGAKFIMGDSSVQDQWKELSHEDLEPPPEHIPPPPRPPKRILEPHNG
Protocol: Microchannels are fabricated with rectangular cross-sections using rapid prototyping in poly(dimethylsiloxane) (PDMS) (McDonald and Whitesides, 2002) and rendered hydrophobic as (Song and Ismagilov, 2003). Syringe pumps were used to drive flows (Harvard Apparatus PHD 2000 Infusion pumps). For aqueous solutions, 50 μl Hamilton Gastight syringes (1700 series, TLL) with removeable needles of 27-gaugeare used with 30-gauge Teflon tubing (Weico Wire and Cable). For the carrier fluid, 1 ml Hamilton Gastight syringes (1700 series, TLL) are used with 30-gauge Teflon needles with one hub from Hamilton (Song and Ismagilov, 2003). The carrier fluid is 9% (v/v) C6F11C2H4OH in perfluorodecaline (PFD) (Song et al., 2003). All water-soluble reagents were dissolved in (25 mM HEPES, pH 7.4, 125 mM NaCl, 1 mM EDTA), a buffer compatible with PTP1B activity.
These three steams are continuously injected into a flow of water immiscible fluorocarbon carrier fluid (9% (v/v) C6F11C2H4OH in PFD). Inlet channels for the aqeous solutions are […] wide and channel for PFD is 28 μm wide. […]
The channel immediately downstream of the point of droplet formation is winding with a peak to peak distance of 50 μm for a distance of 1 mm. […] Fluorescence of the microcapsules due to production of DiFMU (excitation/emmission maxima 358/452 nm; blue fluorescence) is measured using an epifluorescence microscope. […]

[3] = target: T1, human recombinant PTP1B, residues 1-322; assay: Screening for PTP1B inhibitors in water-in-oil emulsion microcapsules with fluorogenic substrate DiFMUP, multi-colour flow cytometry; type: biochemical; conditions: PTP1B 5 mU/ml, 37° C. for 30 min
Protocol: A solution of 1% (w/v) Span 60 and 1% (w/v) cholesterol in decane (all from Sigma Aldrich) is prepared by dissolving 80 mg of Span 60 and 80 mg of cholesterol into 7.84 ml of decane. The decane is heated to 45° C. to allow complete solubilization of the surfactant and cholesterol. The surfactant/decane solution is divided over batches of 200 μl and placed in a block-heater at 37° C.
A hand-extruding device (Mini extruder, Avanti Polar Lipids Inc, Alabaster, Ala., USA) is assembled according to the manufacturer's instructions. For extrusion, a single 19 mm Track-Etch polycarbonate filter with average pore size of 14 μm (Whatman Nuclepore, Whatman, Maidstone, UK) is fitted inside the mini extruder. Two gas-tight 1 ml Hamilton syringes (Gastight #1001, Hamilton Co, Reno, Nev., USA) are used for extrusion. […]
The two emulsions are mixed by vortexing in ratios varying from 1:1000 to 1:1 (compound 2 emulsion: hydrocinnamic acid emulsion) and incubated at 37° C. for 30 min. Inhibitors reduce the amount of non-fluorescent substrate (DiFMUP) converted to the dephosphorylated product (DiFMU; excitation/emmission maxima 358/452 nm; blue fluorescence). […]
The double emulsions are then analysed by multi-colour flow cytometery using a MoFlo (Cytomation) flow cytometer. […]

| exchange between microdroplets / compartments [1] | fluorescence of microcapsules due to production of DiFMU [2] | Molecule | blue fluorescence of microcapsules (dephosphorylation of DiFMUP by PTP1B) ([3]; Example 1: 100 μM compound, two emulsions mixed by vortexing) | blue fluorescence of microcapsules (dephosphorylation of DiFMUP by PTP1B) ([3]; Example 2: 100 μM compound, mixtures added sequentially while homogenising) |
| --- | --- | --- | --- | --- |
| No exchange |  | texas-red |  |  |
|  | exhibiting blue fluorescence | O=C(O)CCc1ccccc1 [hydrocinnamic acid] | blue fluorescence due to dephosphorylation of DiFMUP by PTP1B | blue fluorescence due to dephosphorylation of DiFMUP by PTP1B |
| No exchange |  | O=C(O)CN(CC(=O)O)Cc1cc2c(cc1O)Oc1cc(O)c(CN(CC(=O)O)CC(=O)O)cc1C21OC(=O)c2ccccc21 [calcein] |  |  |
